Reference: ChEMBL document CHEMBL1133840, “Enols as potent antibacterial agents” (2001)
Converted amounts (≈) assume the structure as drawn.

Experiments:
Type in all cases: functional
Enterococcus faecalis = test: Evaluated for its antibacterial activity against Enterococcus faecalis UC 9217
Haemophilus influenzae = test: Evaluated for its antibacterial activity against Haemophilus influenzae 30063
[1] = tested on: Staphylococcus epidermidis; test: Evaluated for its antibacterial activity against Staphylococcus epidermidis UC 12084
Escherichia coli = test: Evaluated for its antibacterial activity against Escherichia coli UC 6674
Klebsiella pneumoniae = test: Evaluated for its antibacterial activity against Klebsiella pneumoniae UC 12081
Pseudomonas aeruginosa = test: Evaluated for its antibacterial activity against Pseudomonas aeruginosa UC 6676
Staphylococcus aureus [2] = test: Evaluated for its antibacterial activity against Staphylococcus aureus UC 9218
Streptococcus pneumoniae = test: Evaluated for its antibacterial activity against Streptococcus pneumoniae UC 9912
Staphylococcus aureus [3] = test: Antibacterial activity against Staphylococcus aureus UC 9218 in the presence of 10% serum
Staphylococcus aureus [4] = test: Antibacterial activity against Staphylococcus aureus UC 9218 in the presence of 0% serum
Staphylococcus aureus [5] = test: Antibacterial activity against Staphylococcus aureus UC 9218 in the presence of 5% serum

| MIC (Enterococcus faecalis) | MIC (Haemophilus influenzae) | MIC [1] | MIC (Escherichia coli) | MIC (Klebsiella pneumoniae) | MIC (Pseudomonas aeruginosa) | MIC (Staphylococcus aureus [2]) | MIC (Streptococcus pneumoniae) | MIC (Staphylococcus aureus [3]) | MIC (Staphylococcus aureus [4]) | MIC (Staphylococcus aureus [5]) | SMILES |
| --- | --- | --- | --- | --- | --- | --- | --- | --- | --- | --- | --- |
| > 128 µg/mL | > 128 µg/mL | > 128 µg/mL | > 128 µg/mL | > 128 µg/mL | > 128 µg/mL | > 128 µg/mL | > 128 µg/mL |  |  |  | CSCC(=O)N(CCc1cccc(C(F)(F)F)c1)c1cccc2ccccc12 |
| 1 µg/mL (≈ 3.16 µM) | 1 µg/mL (≈ 3.16 µM) | 1 µg/mL (≈ 3.16 µM) | > 128 µg/mL | > 128 µg/mL | > 128 µg/mL | 2 µg/mL (≈ 6.32 µM) | 2 µg/mL (≈ 6.32 µM) | 64 µg/mL | 2 µg/mL | 16 µg/mL | Clc1ccc(CCNc2cccc3ccccc23)c(Cl)c1 |
| 16 µg/mL (≈ 52.1 µM) | 32 µg/mL (≈ 104 µM) | 16 µg/mL (≈ 52.1 µM) | > 128 µg/mL | > 128 µg/mL | > 128 µg/mL | 16 µg/mL (≈ 52.1 µM) | 16 µg/mL (≈ 52.1 µM) | 128 µg/mL | 16 µg/mL | 32 µg/mL | COc1ccc(OC)c(CCNc2cccc3ccccc23)c1 |
| 2 µg/mL (≈ 7.16 µM) | 4 µg/mL (≈ 14.3 µM) | 2 µg/mL (≈ 7.16 µM) | > 128 µg/mL | > 128 µg/mL | > 128 µg/mL | 4 µg/mL (≈ 14.3 µM) | 1 µg/mL (≈ 3.58 µM) | 32 µg/mL | 4 µg/mL | 16 µg/mL | Cc1ccccc1NCCc1cccc(C(F)(F)F)c1 |
| > 128 µg/mL | > 128 µg/mL | > 128 µg/mL | > 128 µg/mL | > 128 µg/mL | > 128 µg/mL | 32 µg/mL (≈ 85.7 µM) | 32 µg/mL (≈ 85.7 µM) |  |  |  | O=C(CO)N(CCc1cccc(C(F)(F)F)c1)c1cccc2ccccc12 |
| 2 µg/mL (≈ 6.18 µM) | 64 µg/mL (≈ 198 µM) | 8 µg/mL (≈ 24.7 µM) | > 128 µg/mL | > 128 µg/mL | > 128 µg/mL | 8 µg/mL (≈ 24.7 µM) | 16 µg/mL (≈ 49.5 µM) | 128 µg/mL | 8 µg/mL | 64 µg/mL | c1ccc(-c2ccc(CCNc3cccc4ccccc34)cc2)cc1 |
| > 128 µg/mL | > 128 µg/mL | > 128 µg/mL | > 128 µg/mL | > 128 µg/mL | > 128 µg/mL | > 128 µg/mL | 32 µg/mL (≈ 80.1 µM) |  |  |  | CC(=O)CC(=O)N(CCc1cccc(C(F)(F)F)c1)c1cccc2ccccc12 |
| > 128 µg/mL | > 128 µg/mL | > 128 µg/mL | > 128 µg/mL | > 128 µg/mL | > 128 µg/mL | > 128 µg/mL | 16 µg/mL (≈ 41.8 µM) |  |  |  | N#CCC(=O)N(CCc1cccc(C(F)(F)F)c1)c1cccc2ccccc12 |

More lines, now with the values behind:

| SMILES | MIC (Enterococcus faecalis) | MIC (Haemophilus influenzae) | MIC [1] | MIC (Escherichia coli) | MIC (Klebsiella pneumoniae) | MIC (Pseudomonas aeruginosa) | MIC (Staphylococcus aureus [2]) | MIC (Streptococcus pneumoniae) | MIC (Staphylococcus aureus [3]) | MIC (Staphylococcus aureus [4]) | MIC (Staphylococcus aureus [5]) |
| --- | --- | --- | --- | --- | --- | --- | --- | --- | --- | --- | --- |
| O=C(CC(=O)C(F)(F)F)N(CCc1cccc(C(F)(F)F)c1)c1cccc2ccccc12 | 4 µg/mL (≈ 8.82 µM) | 8 µg/mL (≈ 17.6 µM) | 2 µg/mL (≈ 4.41 µM) | > 128 µg/mL | > 128 µg/mL | > 128 µg/mL | 2 µg/mL (≈ 4.41 µM) | 8 µg/mL (≈ 17.6 µM) | 64 µg/mL | 2 µg/mL | 16 µg/mL |
| FC(F)(F)c1cccc(CCNc2ccc3ccccc3c2)c1 | > 1 µg/mL | 4 µg/mL (≈ 12.7 µM) | 2 µg/mL (≈ 6.34 µM) | > 128 µg/mL | > 128 µg/mL | > 128 µg/mL | 4 µg/mL (≈ 12.7 µM) | 2 µg/mL (≈ 6.34 µM) | 64 µg/mL | 4 µg/mL | 32 µg/mL |
| C[S+]([O-])CC(=O)N(CCc1cccc(C(F)(F)F)c1)c1cccc2ccccc12 (stereo not drawn) | > 128 µg/mL | > 128 µg/mL | 128 µg/mL (≈ 305 µM) | > 128 µg/mL | > 128 µg/mL | > 128 µg/mL | 128 µg/mL (≈ 305 µM) | 64 µg/mL (≈ 153 µM) |  |  |  |
| CCc1cccc2ccccc12 | 128 µg/mL (≈ 819 µM) | > 128 µg/mL | 128 µg/mL (≈ 819 µM) | > 128 µg/mL | > 128 µg/mL | > 128 µg/mL | 128 µg/mL (≈ 819 µM) | 32 µg/mL (≈ 205 µM) | > 128 µg/mL | 128 µg/mL | > 128 µg/mL |
| FC(F)(F)c1cccc(CNc2cccc3ccccc23)c1 | 2 µg/mL (≈ 6.64 µM) | 32 µg/mL (≈ 106 µM) | 4 µg/mL (≈ 13.3 µM) | > 128 µg/mL | > 128 µg/mL | > 128 µg/mL | 2 µg/mL (≈ 6.64 µM) | 8 µg/mL (≈ 26.6 µM) |  | 2 µg/mL |  |
| CC(=O)C(C#N)C(=O)N(CCc1cccc(C(F)(F)F)c1)c1cccc2ccccc12 (stereo not drawn) | 4 µg/mL (≈ 9.42 µM) | > 128 µg/mL | 4 µg/mL (≈ 9.42 µM) | > 128 µg/mL | > 128 µg/mL | > 128 µg/mL | 8 µg/mL (≈ 18.8 µM) | 2 µg/mL (≈ 4.71 µM) | 128 µg/mL | 8 µg/mL | 128 µg/mL |
| CO/N=C(\C(=O)N[C@@H]1C(=O)N2C(C(=O)O)=C(COC(C)=O)CS[C@H]12)c1csc(N)n1 [CEFOTAXIME] |  | 0.015 µg/mL (≈ 0.0329 µM) |  | 0.06 µg/mL (≈ 0.132 µM) | 0.06 µg/mL (≈ 0.132 µM) | 16 µg/mL (≈ 35.1 µM) |  |  |  |  |  |
| CN[C@H](CC(C)C)C(=O)N[C@H]1C(=O)N[C@@H](CC(N)=O)C(=O)N[C@H]2C(=O)N[C@H]3C(=O)N[C@H](C(=O)N[C@H](C(=O)O)c4cc(O)cc(O)c4-c4cc3ccc4O)[C@H](O)c3ccc(c(Cl)c3)Oc3cc2cc(c3O[C@@H]2O[C@H](CO)[C@@H](O)[C@H](O)[C@H]2O[C@H]2C[C@](C)(N)[C@H](O)[C@H](C)O2)Oc2ccc(cc2Cl)[C@H]1O [VANCOMYCIN] | 1 µg/mL (≈ 0.69 µM) |  |  |  |  |  |  | 0.25 µg/mL (≈ 0.173 µM) |  |  |  |
